Test results taken from US9546164B2 (GENENTECH, INC., priority 2013, dated 2017).
pIC50: −log10 of the molar value. Counter-ions that a name gives are not always drawn.

Biological target: hNav1.7 (Homo sapiens (Human), UniProt Q15858)
Assay: Tritiated sulfonamide competitive binding to membranes from cells expressing hNav1.7 and the β1 subunit;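 also: Filter-bound radioactivity counted by liquid scintillation, nonspecific binding defined with excess unlabelled ligand, IC50 fitted to percent inhibition of specific binding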
Conditions: not given

hNav1.7, sequence (Q15858 other isoform, or with tags, fused parts or gaps): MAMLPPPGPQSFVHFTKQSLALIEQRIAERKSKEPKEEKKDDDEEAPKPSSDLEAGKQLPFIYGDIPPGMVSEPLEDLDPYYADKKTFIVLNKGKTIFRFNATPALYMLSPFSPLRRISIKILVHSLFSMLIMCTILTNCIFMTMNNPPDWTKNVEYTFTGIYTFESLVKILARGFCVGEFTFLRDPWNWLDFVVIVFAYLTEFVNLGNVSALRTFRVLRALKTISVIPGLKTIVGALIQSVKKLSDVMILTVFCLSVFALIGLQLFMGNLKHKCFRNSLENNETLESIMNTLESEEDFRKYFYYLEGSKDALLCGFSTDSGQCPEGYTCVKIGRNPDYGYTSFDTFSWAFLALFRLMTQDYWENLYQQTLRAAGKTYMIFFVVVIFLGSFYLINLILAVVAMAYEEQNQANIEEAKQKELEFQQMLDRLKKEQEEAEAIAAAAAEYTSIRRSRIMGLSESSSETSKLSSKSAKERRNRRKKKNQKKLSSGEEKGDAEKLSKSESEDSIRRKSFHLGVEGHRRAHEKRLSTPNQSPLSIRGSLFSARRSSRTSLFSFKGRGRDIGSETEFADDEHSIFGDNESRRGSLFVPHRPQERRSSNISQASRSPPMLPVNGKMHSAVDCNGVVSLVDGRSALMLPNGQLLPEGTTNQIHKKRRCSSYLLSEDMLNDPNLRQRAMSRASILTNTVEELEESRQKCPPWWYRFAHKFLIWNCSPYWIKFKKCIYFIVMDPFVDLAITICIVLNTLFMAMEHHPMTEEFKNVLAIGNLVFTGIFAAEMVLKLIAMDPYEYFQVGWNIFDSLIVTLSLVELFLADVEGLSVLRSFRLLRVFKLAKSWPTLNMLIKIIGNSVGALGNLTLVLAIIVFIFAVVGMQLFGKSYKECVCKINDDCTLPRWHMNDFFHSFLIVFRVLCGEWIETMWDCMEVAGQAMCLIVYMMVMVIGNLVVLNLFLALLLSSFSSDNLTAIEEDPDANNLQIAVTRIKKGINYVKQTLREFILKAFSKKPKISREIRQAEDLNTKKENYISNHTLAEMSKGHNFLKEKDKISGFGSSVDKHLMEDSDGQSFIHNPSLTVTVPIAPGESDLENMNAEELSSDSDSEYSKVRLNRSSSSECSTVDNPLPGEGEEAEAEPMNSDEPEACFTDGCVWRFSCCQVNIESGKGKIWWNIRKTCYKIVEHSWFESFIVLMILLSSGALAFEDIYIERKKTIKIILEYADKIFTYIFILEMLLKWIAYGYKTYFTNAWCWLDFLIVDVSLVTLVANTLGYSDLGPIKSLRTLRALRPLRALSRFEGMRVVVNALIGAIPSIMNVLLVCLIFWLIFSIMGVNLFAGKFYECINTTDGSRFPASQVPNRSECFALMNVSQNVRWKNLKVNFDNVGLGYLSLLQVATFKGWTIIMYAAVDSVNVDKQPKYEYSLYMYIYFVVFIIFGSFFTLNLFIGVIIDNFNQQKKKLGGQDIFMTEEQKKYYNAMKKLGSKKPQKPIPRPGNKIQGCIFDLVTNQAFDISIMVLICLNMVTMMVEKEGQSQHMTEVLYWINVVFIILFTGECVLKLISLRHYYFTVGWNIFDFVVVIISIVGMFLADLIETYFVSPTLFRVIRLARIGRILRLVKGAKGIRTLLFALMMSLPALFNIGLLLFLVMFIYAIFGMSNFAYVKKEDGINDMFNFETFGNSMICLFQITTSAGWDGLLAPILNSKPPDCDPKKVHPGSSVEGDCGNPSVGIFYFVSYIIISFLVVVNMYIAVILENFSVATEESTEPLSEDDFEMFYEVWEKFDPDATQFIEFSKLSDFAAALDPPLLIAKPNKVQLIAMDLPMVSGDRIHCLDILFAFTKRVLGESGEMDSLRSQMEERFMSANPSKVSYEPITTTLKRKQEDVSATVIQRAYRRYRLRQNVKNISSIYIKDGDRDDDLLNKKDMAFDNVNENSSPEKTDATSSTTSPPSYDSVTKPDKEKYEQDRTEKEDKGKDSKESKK
hNav1.7, sequence (Q07699 19-218 partner): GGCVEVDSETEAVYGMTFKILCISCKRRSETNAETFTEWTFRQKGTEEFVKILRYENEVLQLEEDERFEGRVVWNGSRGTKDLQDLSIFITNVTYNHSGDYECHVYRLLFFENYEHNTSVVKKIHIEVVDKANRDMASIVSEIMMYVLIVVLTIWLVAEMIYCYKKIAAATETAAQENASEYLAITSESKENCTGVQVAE

First: CS(=O)(=O)NC(=O)c1cc(C2CC2)c(CN2CCC(Oc3cccc(C(F)(F)F)c3)CC2)cc1F [Example 501, 5-cyclopropyl-2-fluoro-N-(methylsulfonyl)-4-((4-(3-(trifluoromethyl)phenoxy)piperidin-1-yl)methyl)benzamide, trifluoroacetic acid salt]
Second: C[C@H](c1cc(Cl)cc(Cl)c1)N1CCC[C@@H](Oc2cc(F)c(C(=O)NS(C)(=O)=O)cc2C2CC2)C1 (single isomer, unassigned) [Example 51]
The pIC50 of the first is 0.81 log units lower: 7.87 for the first, 8.68 for the second.

`CC(C)(C)N1CCC[C@@H](Oc2cc(F)c(C(=O)NS(=O)(=O)C3CC3)cc2C2CC2)C1` [Example 539, (R)-4-((1-(tert-butyl)piperidin-3-yl)oxy)-5-cyclopropyl-N-(cyclopropylsulfonyl)-2-fluorobenzamide] showed a pIC50 of 5.64.

Same assay, conditions: read-out: Ligand Binding Assay; 100 pM [3H]compound, membranes with hNav1.7 and β1 subunit, 18 h, room temperature

Compared with `CC(C)Oc1ncc([C@@H](c2ccccc2)N2CC(COc3cc(F)c(C(=O)NS(C)(=O)=O)cc3C3CC3)C2)cc1Cl` [Example 115, (R)-4-((1-((5-Chloro-6-isopropoxypyridin-3-yl)(phenyl)methyl)azetidin-3-yl)methoxy)-5-cyclopropyl-2-fluoro-N-(methylsulfonyl)benzamide], `CS(=O)(=O)NC(=O)c1cc(C2CC2)c(OCC2CN([C@H](c3ccccc3)c3cccnc3)C2)cc1F` [Example 81, (R)-5-Cyclopropyl-2-fluoro-N-(methylsulfonyl)-4-((1-(phenyl(pyridin-3-yl)methyl)azetidin-3-yl)methoxy)benzamide] is 2.18 log units lower in pIC50: 8.38 for the first, 6.20 for the second.

First: Cc1cc(C)cc(CN2CCC[C@@H](Oc3cc(F)c(C(=O)NS(C)(=O)=O)cc3C3CC3)C2)c1 [Example 436, (R)-5-cyclopropyl-4-((1-(3,5-dimethylbenzyl)piperidin-3-yl)oxy)-2-fluoro-N-(methylsulfonyl)benzamide, trifluoroacetic acid salt]
Second: Cc1ccc(CN2CCC[C@@H](Oc3cc(F)c(C(=O)NS(C)(=O)=O)cc3C3CC3)C2)c(Cl)c1 [Example 424, (R)-4-((1-(2-chloro-4-methylbenzyl)piperidin-3-yl)oxy)-5-cyclopropyl-2-fluoro-N-(methylsulfonyl)benzamide, trifluoroacetic acid salt]
The pIC50 of the first is 0.33 log units lower: 8.27 for the first, 8.60 for the second. The second is the more potent here.

First: C[C@@H]1CC[C@@H](Oc2cc(F)c(C(=O)NS(=O)(=O)C3CC3)cc2C2CC2)CN1Cc1ccc(F)cc1Cl [Example 323, 4-(((3R,6R)-1-(2-chloro-4-fluorobenzyl)-6-methylpiperidin-3-yl)oxy)-5-cyclopropyl-N-(cyclopropylsulfonyl)-2-fluorobenzamide]
Second: O=C(NS(=O)(=O)C1CC1)c1cc(C2CC2)c(O[C@@H]2CCCN(c3ccccn3)C2)cc1F [Example 492, (R)-5-cyclopropyl-N-(cyclopropylsulfonyl)-2-fluoro-4-((1-(pyridin-2-yl)piperidin-3-yl)oxy)benzamide]
The pIC50 of the first is 1.69 log units higher: 8.72 for the first, 7.03 for the second. The first is the more potent here.

Going from `CS(=O)(=O)NC(=O)c1cc(C2CC2)c(OCC2CN(C(=O)c3cc(Cl)cc(Cl)c3)C2)cc1F` [Example 134, 5-Cyclopropyl-4-((1-(3,5-dichlorobenzoyl)azetidin-3-yl)methoxy)-2-fluoro-N-(methylsulfonyl)benzamide] to `CS(=O)(=O)NC(=O)c1cc(C2CC2)c(OCC2CCN(C(=O)c3cc(Cl)cc(Cl)c3)CC2)cc1F` [Example 253, 5-Cyclopropyl-4-((1-(3,5-dichlorobenzoyl)piperidin-4-yl)methoxy)-2-fluoro-N-(methylsulfonyl)benzamide], the pIC50 rises from 6.46 to 7.70 (1.24 log units). The second is the more potent here.

`CC1(COc2cc(F)c(C(=O)NS(=O)(=O)C3CC3)cc2C2CC2)CN(C(c2ccccc2)c2ccccc2)C1` [Example 70, 4-((1-benzhydryl-3-methylazetidin-3-yl)methoxy)-5-cyclopropyl-N-(cyclopropylsulfonyl)-2-fluorobenzamide] and `CCS(=O)(=O)NC(=O)c1cc(C2CC2)c(OCC2(C)CN(C(c3ccccc3)c3ccccc3)C2)cc1F` [Example 69, 4-((1-benzhydryl-3-methylazetidin-3-yl)methoxy)-5-cyclopropyl-N-(ethylsulfonyl)-2-fluorobenzamide] are within 0.2 log units of each other in pIC50: 8.22 for the first, 8.21 for the second.

First: CC(C)N(C(=O)CN1CCC[C@@H](Oc2cc(F)c(C(=O)NS(C)(=O)=O)cc2C2CC2)C1)C(C)C [Example 179]
Second: C[C@@H](c1ccc(F)cc1)N1CCC[C@@H](Oc2cc(F)c(C(=O)NS(C)(=O)=O)cc2C2CC2)C1 (single isomer, unassigned) [Example 315]
The pIC50 of the first is 1.98 log units lower: 5.74 for the first, 7.72 for the second. The second is the more potent here.

First: COC[C@@H](c1cc(Cl)cc(Cl)c1)N1CCC[C@@H](Oc2cc(F)c(C(=O)NS(C)(=O)=O)cc2C2CC2)C1 [Example 447, 5-cyclopropyl-4-(((R)-1-((R)-1-(3,5-dichlorophenyl)-2-methoxyethyl)piperidin-3-yl)oxy)-2-fluoro-N-(methylsulfonyl)benzamide]
Second: CS(=O)(=O)NC(=O)c1cc(C2CC2)c(OCC2CCN(C(c3cc(Cl)cc(Cl)c3)C(F)(F)F)CC2)cc1F (stereo not drawn) [Example 299, 5-cyclopropyl-4-((1-(1-(3,5-dichlorophenyl)-2,2,2-trifluoroethyl)piperidin-4-yl)methoxy)-2-fluoro-N-(methylsulfonyl)benzamide]
The pIC50 of the first is 0.50 log units lower: 8.22 for the first, 8.72 for the second. The second is the more potent here.

Compared with `CS(=O)(=O)NC(=O)c1cc(C2CC2)c(OCC2CCN(Cc3cnc(OCC(F)(F)F)c(Cl)c3)CC2)cc1F` [Example 190, 4-((1-((5-Chloro-6-(2,2,2-trifluoroethoxy)pyridin-3-yl)methyl)piperidin-4-yl)methoxy)-5-cyclopropyl-2-fluoro-N-(methylsulfonyl)benzamide], `CS(=O)(=O)NC(=O)c1cc(C2CC2)c(OCC2CCN(Cc3cc(C(F)(F)F)ccc3Cl)CC2)cc1F` [Example 580, 4-((1-(2-chloro-5-(trifluoromethyl)benzyl)piperidin-4-yl)methoxy)-5-cyclopropyl-2-fluoro-N-(methylsulfonyl)benzamide] is 1.18 log units higher in pIC50: 7.25 for the first, 8.43 for the second.

Going from `CS(=O)(=O)NC(=O)c1cc(C2CC2)c(CN2[C@@H]3CC[C@H]2C[C@@H](Oc2cc(C(F)(F)F)c(Cl)cn2)C3)cc1F` [Example 550, 4-(((1R,3r,5S)-3-((5-chloro-4-(trifluoromethyl)pyridin-2-yl)oxy)-8-azabicyclo[3.2.1]octan-8-yl)methyl)-5-cyclopropyl-2-fluoro-N-(methylsulfonyl)benzamide, trifluoroacetic acid salt] to `CS(=O)(=O)NC(=O)c1cc(C2CC2)c(CN2[C@@H]3CC[C@H]2CC(Oc2cc(C(F)(F)F)cc(Cl)c2F)C3)cc1F` (stereo partly drawn) [Example 471, 4-(((1R,3r,5S)-3-(3-chloro-2-fluoro-5-(trifluoromethyl)phenoxy)-8-azabicyclo[3.2.1]octan-8-yl)methyl)-5-cyclopropyl-2-fluoro-N-(methylsulfonyl)benzamide 2,2,2-trifluoroacetate], the pIC50 rises from 7.87 to 8.43 (0.56 log units).

First: O=C(NS(=O)(=O)C1CC1)c1cc(C2CC2)c(OCC2CCN(Cc3ncccc3C(F)(F)F)CC2)cc1F [Example 364, 5-cyclopropyl-N-(cyclopropylsulfonyl)-2-fluoro-4-((1-((3-(trifluoromethyl)pyridin-2-yl)methyl)piperidin-4-yl)methoxy)benzamide, trifluoroacetic acid salt]
Second: O=C(NS(=O)(=O)C1CC1)c1cc(C2CC2)c(OCC2CCN(S(=O)(=O)c3ccccc3C(F)(F)F)CC2)cc1F [Example 371, 5-cyclopropyl-N-(cyclopropylsulfonyl)-2-fluoro-4-((1-((2-(trifluoromethyl)phenyl)sulfonyl)piperidin-4-yl)methoxy)benzamide]
The pIC50 of the first is 0.60 log units lower: 7.09 for the first, 7.69 for the second. The second is the more potent here.

Going from `COC[C@](C)(c1cc(Cl)cc(Cl)c1)N1CCC(COc2cc(F)c(C(=O)NS(C)(=O)=O)cc2C2CC2)CC1` (single isomer, unassigned) [Example 202] to `COC[C@@H](c1ccc(F)c(C(F)(F)F)c1)N1CCC(COc2cc(F)c(C(=O)NS(C)(=O)=O)cc2C2CC2)CC1` (single isomer, unassigned) [Example 187], the pIC50 falls from 8.80 to 8.30 (0.50 log units). The first is the more potent here.

First: O=C(NS(=O)(=O)C1CC1)c1cc(C2CC2)c(OCCC2CCN(Cc3cc(Cl)cc(Cl)c3)CC2)cc1F [Example 304, 5-cyclopropyl-N-(cyclopropylsulfonyl)-4-(2-(1-(3,5-dichlorobenzyl)piperidin-4-yl)ethoxy)-2-fluorobenzamide, trifluoroacetic acid salt]
Second: CC(C)c1nc(CN2CCC(COc3cc(F)c(C(=O)NS(=O)(=O)C4CC4)cc3C3CC3)CC2)cs1 [Example 355, 5-cyclopropyl-N-(cyclopropylsulfonyl)-2-fluoro-4-((1-((2-isopropylthiazol-4-yl)methyl)piperidin-4-yl)methoxy)benzamide trifluoroacetic acid salt]
The pIC50 of the first is 1.50 log units higher: 8.43 for the first, 6.93 for the second. The first is the more potent here.

`CS(=O)(=O)NC(=O)c1cc(C2CC2)c(OCC2CCN(Cc3ccc(OC(F)(F)F)cc3)CC2)cc1F` [Example 135] and `CS(=O)(=O)NC(=O)c1cc(C2CC2)c(OCC2CCN(S(=O)(=O)c3cccc(C(F)(F)F)c3)CC2)cc1F` [Example 374, 5-cyclopropyl-2-fluoro-N-(methylsulfonyl)-4-((1-((3-(trifluoromethyl)phenyl)sulfonyl)piperidin-4-yl)methoxy)benzamide] are within 0.2 log units of each other in pIC50: 7.81 for the first, 7.64 for the second.

`O=C(NS(=O)(=O)C1CC1)c1cc(C2CC2)c(CN2CCC(Oc3cccc(C(F)(F)F)c3)CC2)cc1F` [Example 502, trifluoroacetic acid salt] and `CS(=O)(=O)NC(=O)c1cc(C2CC2)c(OCC2CCN(c3ccccc3Cl)CC2)cc1F` [Example 293, 4-((1-(2-Chlorophenyl)piperidin-4-yl)methoxy)-5-cyclopropyl-2-fluoro-N-(methylsulfonyl)benzamide] are within 0.2 log units of each other in pIC50: 8.17 for the first, 8.28 for the second.

`O=C(NS(=O)(=O)N1CCC1)c1cc(C2CC2)c(CN2CCO[C@H](Cc3cc(Cl)cc(Cl)c3)C2)cc1F` [Example 465, (R)—N-(azetidin-1-ylsulfonyl)-5-cyclopropyl-4-((2-(3,5-dichlorobenzyl)morpholino)methyl)-2-fluorobenzamide, trifluoroacetic acid salt] and `C[C@@H](c1ccc(OC(F)(F)F)cc1)N1CCC(C)(COc2cc(F)c(C(=O)NS(C)(=O)=O)cc2C2CC2)CC1` (single isomer, unassigned) [Example 248] are within 0.2 log units of each other in pIC50: 7.89 for the first, 8.00 for the second.
